Experimental findings from patent US20240270741A1 (Cogent Biosciences, Inc., priority 2023, published 2024) are described below.

SMILES strings stand for the structures.

Chain of FGFR2 (P21802 399-821 limits assumed): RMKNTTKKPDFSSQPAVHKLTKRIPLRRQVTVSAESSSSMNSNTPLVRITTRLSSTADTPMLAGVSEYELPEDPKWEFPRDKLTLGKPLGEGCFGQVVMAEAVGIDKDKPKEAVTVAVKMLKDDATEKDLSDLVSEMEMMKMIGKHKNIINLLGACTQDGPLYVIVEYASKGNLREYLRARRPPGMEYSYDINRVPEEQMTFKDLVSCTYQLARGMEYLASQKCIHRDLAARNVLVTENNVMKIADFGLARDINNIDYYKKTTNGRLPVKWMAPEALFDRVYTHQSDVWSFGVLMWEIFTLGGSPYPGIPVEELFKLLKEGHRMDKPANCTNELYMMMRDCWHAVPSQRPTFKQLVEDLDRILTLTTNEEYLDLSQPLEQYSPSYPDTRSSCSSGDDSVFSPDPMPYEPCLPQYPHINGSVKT

The assay addresses FGFR2 (Homo sapiens, UniProt P21802). As to the kind of experiment: FGFR wild type enzyme assay (HTRF KinEASE-TK), FGFR2. To be noted: Enz FGFR2 (nM), FGFR2 wild type enzyme. A general note: In TR-FRET formats the signal depends on donor and acceptor labels being close together.
Usually IC50 stands for the concentration that inhibits the measured activity by half. The molecule `Cc1nn(C2CCN(C)CC2)c(C)c1-c1cc(Sc2ncccc2F)c2c(C#N)cnn2c1` [Example 303, 6-(3,5-dimethyl-1-(1-methylpiperidin-4-yl)-1H-pyrazol-4-yl)-4-((3-fluoropyridin-2-yl)thio)pyrazolo[1,5-a]pyridine-3-carbontirile] displayed an IC50 of 6 nM.
The result for `Cc1nn([C@H]2CC[C@@H](N(C)C)CC2)c(C)c1-c1cc(Sc2ncccc2F)c2c(C#N)cnn2c1` [Example 304, 6-(1-((1s,4s)-4-(dimethylamino)cyclohex-yl)-3,5-dimethyl-1H-pyrazol-4-yl)-4-((3-fluoropyridin-2-yl)thio)pyrazolo[1,5-a]pryidine-3-carbonitrile] reads 3.5 nM; that for `Cc1nn(C2CCN(C)CC2)c(C)c1-c1cc(Sc2ccccc2C#N)c2c(C#N)cnn2c1` [Example 305, 4-((2-cyanophenyl)thio)-6-(3,5-dimethyl-1-(1-methylpiperidin-4-yl)-1H-pyrazol-4-yl)pyrazolo[1,5-a]pyridine-3-carbonitrile], 5 nM; that for `CC(=O)N1CCC(n2ncc(-c3cc(Sc4ccc(F)cn4)c4c(C#N)cnn4c3)c2C)CC1` [Example 306, 6-(1-(1-acetylpiperidin-4-yl)-5-methyl-1H-pyrazol-4-yl)-4-((5-fluoropyridin-2-yl)thio)pyrazolo[1,5-a]pyridine-3-carbonitrile], 6 nM.
The result for `Cc1c(-c2cc(Sc3ccc(F)cn3)c3c(C#N)cnn3c2)cnn1[C@H]1CCCNC1` [Example 307, (S)-4-((5-fluoropyridin-2-yl)thio)-6-(5-methyl-1-(piperidin-3-yl)-1H-pyrazol-4-yl)pyrazolo[1,5-a]pyridine-3-carbonitrile] reads 5 nM.
The result for `CC(=O)N1CCC[C@H](n2ncc(-c3cc(Sc4ccc(F)cn4)c4c(C#N)cnn4c3)c2C)C1` [Example 308, (S)-6-(1-(1-acetylpiperidin-3-yl)-5-methyl-1H-pyrazol-4-yl)-4-((5-fluoropyridin-2-yl)thio)pyrazolo[1,5-a]pyridine-3-carbonitrile] reads 7 nM.
In turn, `Cc1c(-c2cc(Sc3ccc(F)cn3)c3c(C#N)cnn3c2)cnn1[C@H]1C[C@H]2CC[C@@H](C1)N2C(=O)CO` [Example 309, 4-((5-fluoropyridin-2-yl)thio)-6-(1-((1R,3r,5S)-8-(2-hydroxyacetyl)-8-azabicyclo[3.2.1]octan-3-yl)-5-methyl-1H-pyrazol-4-yl)pyrazolo[1,5-a]pyridine-3-carbonitrile] yielded an IC50 of 6 nM.
Consider `Cc1c(-c2cc(Sc3ccc(F)cn3)c3c(C#N)cnn3c2)cnn1[C@@H]1C[C@H]2CC[C@@H](C1)N2C(=O)CO` [Example 310, 4-((5-fluoropyridin-2-y)thio)-6-(1-((1R,3s,5S)-8-(2-hydroxyacetyl)-8-azabicyclo[3.2.1]octan-3-yl)-5-methyl-1H-pyrazol-4-yl)pyrazolo[1,5-a]pyridine-3-carobnitrile], for which inhibition was half-maximal at 8 nM (IC50).
The figure for `CN[C@H]1CC[C@@H](n2ncc(-c3cc(Sc4ccccn4)c4c(C#N)cnn4c3)c2C)CC1` [Example 311, 6-(5-methyl-1-((1s,4s)-4-(methylamino)cyclohexyl)-1H-pyrazol-4-yl)-4-(pyridin-2-ylthio)pyrazolo[1,5-a]pyridine-3-carbonitrile] is 2 nM; for `Cc1nn([C@H]2CC[C@@H](O)CC2)cc1-c1cc(Sc2ncccc2F)c2c(C#N)cnn2c1` [Example 312, 4-((3-fluoropyridin-2-yl)thio)-6-(1-((1s,4s)-4-hydroxycyclohexyl)-3-methyl-1H-pyrazol-4-yl)pyrazolo[1,5-a]pyridine-3-carbonitrile] it is 1.5 nM.
The result for `Cc1nn([C@H]2CC[C@@H](O)CC2)cc1-c1cc(Sc2ccccc2C#N)c2c(C#N)cnn2c1` [Example 313, 4-((2-cyanophenyl)thio)-6-(1-((1s,4s)-4-hydroxycyclohexyl)-3-methyl-1H-pyrazol-4-yl)pyrazolo[1,5-a]pyridine-3-carbonitrile] reads 1 nM.
The figure for `CC(=O)N[C@H]1CC[C@@H](n2cc(-c3cc(Sc4ccccn4)c4c(C#N)cnn4c3)cn2)CC1` [Example 314, N-((1s,4s)-4-(4-(3-cyano-4-(pyridin-2-ylthio)pyrazolo[1,5-a]pyridin-6-yl)-1H-pyrazol-1-yl)cyclohexyl)acetamide] is 2 nM; for `CC(=O)N[C@H]1CC[C@@H](n2cc(-c3cc(Sc4ncccc4C)c4c(C#N)cnn4c3)cn2)CC1` [Example 315, N-((1s,4s)-4-(4-(3-cyano-4-((3-methylpyridin-2-yl)thio)pyrazolo[1,5-a]pyridin-6-yl)-1H-pyrazol-1-yl)cyclohexyl)acetamide] it is 3 nM.
Regarding `CC(=O)N[C@H]1CC[C@@H](n2cc(-c3cc(Sc4ccccc4C#N)c4c(C#N)cnn4c3)cn2)CC1` [Example 316, N-((1s,4s)-4-(4-(3-cyano-4-((2-cyanophenyl)thio)pyrazolo [1,5-a]pyridin-6-yl)-1H-pyrazol-1-yl)cyclohexyl)acetamide], the IC50 worked out at 0.4 nM.
In turn, `Cc1c(-c2cc(Sc3ccc(F)cc3C#N)c3c(C#N)cnn3c2)cnn1[C@H]1CC[C@@H](N(C)CCO)CC1` [Example 317, 4-((2-cyano-4-fluorophenyl)thio)-6-(1-((1s,4s)-4-((2-hydroxyethyl)(methyl)ami-no)cyclohexyl)-5-methyl-1H-pyrazol-4-yl)pyrazolo[1,5-a]pyridine-3-carbonitrile] returned an IC50 of 0.5 nM.
The result for `Cc1c(-c2cc(Sc3ccccc3C#N)c3c(C#N)cnn3c2)cnn1[C@H]1CC[C@@H](N(C)CCO)CC1` [Example 318, 4-((2-cyanophenyl)thio)-6-(1-((1s,4s)-4-((2-hydroxyethyl)(methyl)ami-no)cyclohexyl)-5-methyl-1H-pyrazol-4-yl)pyrazolo[1,5-a]pyridine-3-carbonitrile] reads 0.4 nM; that for `CN[C@]1(C)CC[C@H](n2ncc(-c3cc(Sc4ccccc4C#N)c4c(C#N)cnn4c3)c2C)CC1` [Example 319, 4-((2-cyanophenyl)thio)-6-(5-methyl-1-((1s,4s)-4-methyl-4-(methylamino)cyclohexyl)-1H-pyrazol-4-yl)pyrazolo[1,5-a]pyridine-3-carbonitrile], 0.3 nM.
The figure for `CN[C@]1(C)CC[C@@H](n2ncc(-c3cc(Sc4ccccc4C#N)c4c(C#N)cnn4c3)c2C)CC1` [Example 320, 4-((2-cyanophenyl)thio)-6-(5-methyl-1-((1r,4r)-4-methyl-4-(methylamino)cyclohexyl)-1H-pyrazol-4-yl)pyrazolo[1,5-a]pyridine-3-carbonitirle] is 0.3 nM; for `CC(=O)N1CC[C@]2(CC[C@@H](n3ncc(-c4cc(Sc5ccccc5C#N)c5c(C#N)cnn5c4)c3C)CC2)C1` [Example 321, 6-(1-((5r,8r)-2-acetyl-2-azaspiro[4.5]decan-8-yl)-5-methyl-1H-pyrazol-4-yl)-4-((2-cyanophenyl)thio)pyrazolo [1,5-a]pyridine-3-carbonitrile] it is 1 nM.
The figure for `CC(=O)N1CC[C@]2(CC[C@H](n3ncc(-c4cc(Sc5ccccc5C#N)c5c(C#N)cnn5c4)c3C)CC2)C1` [Example 322, 6-(1-((5s,8s)-2-acetyl-2-azaspiro[4.5]decan-8-yl)-5-methyl-1H-pyrazol-4-yl)-4-((2-cyanophenyl)thio)pyrazolo [1,5-a]pyridine-3-carbonitrile] is 0.6 nM.
